Reference: ChEMBL document CHEMBL1156989, “Discovery of novel small molecule orally bioavailable C-X-C chemokine receptor 4 antagonists that are potent inhibitors of T-tropic (X4) HIV-1 replication” (J Med Chem, 2010)

Tests used:
[1] = Cytotoxicity against human MT4 cells expressing CD4 and CXCR4 assessed as cell viability
[2] = test system: Human immunodeficiency virus 1; experiment: Antiviral activity against HIV1 NL4.3 infected in human MT4 cells expressing CD4 and CXCR4 assessed as inhibition of virus-induced cytopathicity; assay type: functional, organism-based; conditions: Human immunodeficiency virus 1, NL4.3, MT4
[3] = molecular target: T1, C-X-C chemokine receptor type 4 (Homo sapiens, UniProt P61073); experiment: Antagonist activity at CXCR4 in human CEM-CCRF cells assessed as inhibition of SDF-1-induced calcium flux; assay type: functional, cell-based
[4] = test system: Human immunodeficiency virus 1; experiment: Antiviral activity against HIV1 3B infected in human MT4 cells assessed as inhibition of virus-induced cytopathicity in presence of 10% human serum; assay type: functional, organism-based; conditions: Human immunodeficiency virus 1, 3B
[5] = molecular target: T2, C-X-C chemokine receptor type 2 (Homo sapiens, UniProt P25025); experiment: Displacement of radiolabeled IL8 from CXCR2 receptor
T2 sequence (P25025 whole entry): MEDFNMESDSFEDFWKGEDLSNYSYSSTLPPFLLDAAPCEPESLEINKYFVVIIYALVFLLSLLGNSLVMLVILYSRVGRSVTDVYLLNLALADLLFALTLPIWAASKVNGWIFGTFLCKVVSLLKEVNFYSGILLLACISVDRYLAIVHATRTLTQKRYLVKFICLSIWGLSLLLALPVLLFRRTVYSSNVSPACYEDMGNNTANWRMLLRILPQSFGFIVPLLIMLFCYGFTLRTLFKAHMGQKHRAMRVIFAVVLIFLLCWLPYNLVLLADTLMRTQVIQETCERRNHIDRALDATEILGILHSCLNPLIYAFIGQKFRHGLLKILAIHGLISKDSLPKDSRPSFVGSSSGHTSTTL

[6] = molecular target: C-C chemokine receptor type 2 (Homo sapiens, UniProt P41597); experiment: Displacement of radiolabeled MCP1 from CCR2b receptor
[7] = molecular target: T3, C-C chemokine receptor type 1 (Homo sapiens, UniProt P32246); experiment: Displacement of radiolabeled MIP1alpha from CCR1 receptor
T3 sequence (P32246 whole entry): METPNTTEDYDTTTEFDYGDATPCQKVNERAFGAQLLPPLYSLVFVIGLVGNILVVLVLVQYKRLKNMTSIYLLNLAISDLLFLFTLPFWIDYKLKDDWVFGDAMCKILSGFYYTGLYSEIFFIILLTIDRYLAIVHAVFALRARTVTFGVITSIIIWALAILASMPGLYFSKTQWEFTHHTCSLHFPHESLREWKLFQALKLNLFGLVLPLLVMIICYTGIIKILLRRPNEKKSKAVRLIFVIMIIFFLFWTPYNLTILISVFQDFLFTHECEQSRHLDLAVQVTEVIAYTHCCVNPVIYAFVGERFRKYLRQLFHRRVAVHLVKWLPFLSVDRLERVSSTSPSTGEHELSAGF

[8] = molecular target: C-C chemokine receptor type 5 (Homo sapiens, UniProt P51681); experiment: Displacement of radiolabeled MIP1beta from CCR5 receptor
[9] = Oral bioavailability in dog at 25 mg/kg; assay type: ADME, organism-based, Canis lupus familiaris; conditions: in vivo
[10] = molecular target: T4, C-X-C chemokine receptor type 1 (Homo sapiens, UniProt P25024); experiment: Displacement of radiolabeled IL8 from CXCR1 receptor
T4 sequence (P25024 whole entry): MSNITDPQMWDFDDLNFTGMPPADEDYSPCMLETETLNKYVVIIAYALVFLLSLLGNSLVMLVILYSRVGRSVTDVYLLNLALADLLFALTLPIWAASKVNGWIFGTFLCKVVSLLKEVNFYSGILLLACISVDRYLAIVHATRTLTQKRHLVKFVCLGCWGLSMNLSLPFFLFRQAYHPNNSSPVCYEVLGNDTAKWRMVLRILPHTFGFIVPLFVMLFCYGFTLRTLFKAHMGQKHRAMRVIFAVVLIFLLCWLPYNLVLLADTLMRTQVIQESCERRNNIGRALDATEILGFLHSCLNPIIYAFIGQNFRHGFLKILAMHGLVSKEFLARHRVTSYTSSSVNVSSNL

[11] = test system: Rattus norvegicus; experiment: Half life in rat at 10 mg/kg, iv; assay type: ADME, organism-based; design: dose 10 mg/kg, route intravenous; conditions: in vivo
[12] = test system: Canis familiaris; experiment: Volume of distribution in dog at 5 mg/kg, iv; assay type: ADME, organism-based, Canis lupus familiaris; design: dose 5 mg/kg, route intravenous; conditions: in vivo
[13] = test system: Human immunodeficiency virus 1; experiment: Antiviral activity against HIV1 NL4.3 infected in human PBMC assessed as inhibition of virus-induced cytopathicity; assay type: functional, organism-based; conditions: Human immunodeficiency virus 1, NL4.3
[14] = test system: Human immunodeficiency virus 1; experiment: Antiviral activity against HIV1 NL4.3 infected in human MT4 cells assessed as inhibition of virus-induced cytopathicity in presence of 10% human serum; assay type: functional, organism-based; conditions: Human immunodeficiency virus 1, NL4.3, MT4
[15] = test system: Human immunodeficiency virus 1; experiment: Antiviral activity against HIV1 3B infected in human MT-4 cells assessed as inhibition of virus-induced cytopathicity; conditions: Human immunodeficiency virus 1, 3B
[16] = test system: Canis familiaris; experiment: Half life in dog at 5 mg/kg, iv; assay type: ADME, organism-based, Canis lupus familiaris; design: dose 5 mg/kg, route intravenous; conditions: in vivo
[17] = test system: Rattus norvegicus; experiment: Volume of distribution in rat at 10 mg/kg, iv; assay type: ADME, organism-based; design: dose 10 mg/kg, route intravenous; conditions: in vivo
[18] = Oral bioavailability in rat at 40 mg/kg; assay type: ADME, organism-based; conditions: in vivo
[19] = molecular target: T1, C-X-C chemokine receptor type 4; experiment: Inhibition of anti-CXCR4 12G5 monoclonal antibody to CXCR4 in human SUP-T1 cells pretreated for 30 mins by flow cytometry; assay type: cell-based
[20] = molecular target: T5, C-C chemokine receptor type 4 (Homo sapiens, UniProt P51679); experiment: Displacement of radiolabeled TARC from CCR4 receptor
T5 sequence (P51679 whole entry): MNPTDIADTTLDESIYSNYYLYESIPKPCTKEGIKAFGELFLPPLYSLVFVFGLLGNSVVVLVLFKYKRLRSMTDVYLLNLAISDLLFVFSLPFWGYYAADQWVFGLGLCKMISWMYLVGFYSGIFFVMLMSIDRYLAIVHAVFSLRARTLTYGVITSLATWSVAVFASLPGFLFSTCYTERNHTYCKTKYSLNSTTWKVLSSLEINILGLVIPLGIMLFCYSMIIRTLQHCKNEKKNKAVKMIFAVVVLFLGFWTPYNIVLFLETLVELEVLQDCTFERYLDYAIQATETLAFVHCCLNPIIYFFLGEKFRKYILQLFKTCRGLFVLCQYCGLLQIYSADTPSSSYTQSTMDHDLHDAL

[21] = Cmax in rat; assay type: ADME, organism-based; conditions: in vivo
[22] = Cmax in dog; assay type: ADME, organism-based, Canis lupus familiaris; conditions: in vivo
[23] = test system: Rattus norvegicus; experiment: Half life in rat at 5 mg/kg, iv; assay type: ADME, organism-based; design: dose 5 mg/kg, route intravenous; conditions: in vivo
[24] = Oral bioavailability in dog at 6 mg/kg; assay type: ADME, organism-based, Canis lupus familiaris; conditions: in vivo
[25] = Oral bioavailability in rat at 100 mg/kg; assay type: ADME, organism-based; conditions: in vivo
[26] = test system: Rattus norvegicus; experiment: Volume of distribution in rat at 5 mg/kg, iv; assay type: ADME, organism-based; design: dose 5 mg/kg, route intravenous; conditions: in vivo
[27] = MT4 cells expressing CD4 and CXCR4

T1 sequence (P61073 whole entry): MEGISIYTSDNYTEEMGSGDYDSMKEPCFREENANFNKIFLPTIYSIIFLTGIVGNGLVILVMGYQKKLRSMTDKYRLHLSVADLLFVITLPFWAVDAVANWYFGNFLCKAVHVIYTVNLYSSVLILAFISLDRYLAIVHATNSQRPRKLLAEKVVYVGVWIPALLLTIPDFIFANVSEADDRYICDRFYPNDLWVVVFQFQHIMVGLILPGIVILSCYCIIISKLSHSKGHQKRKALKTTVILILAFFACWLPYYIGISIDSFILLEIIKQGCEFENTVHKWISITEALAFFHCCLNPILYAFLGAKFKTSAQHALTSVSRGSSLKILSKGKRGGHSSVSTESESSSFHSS
C-C chemokine receptor type 2, sequence (P41597 whole entry): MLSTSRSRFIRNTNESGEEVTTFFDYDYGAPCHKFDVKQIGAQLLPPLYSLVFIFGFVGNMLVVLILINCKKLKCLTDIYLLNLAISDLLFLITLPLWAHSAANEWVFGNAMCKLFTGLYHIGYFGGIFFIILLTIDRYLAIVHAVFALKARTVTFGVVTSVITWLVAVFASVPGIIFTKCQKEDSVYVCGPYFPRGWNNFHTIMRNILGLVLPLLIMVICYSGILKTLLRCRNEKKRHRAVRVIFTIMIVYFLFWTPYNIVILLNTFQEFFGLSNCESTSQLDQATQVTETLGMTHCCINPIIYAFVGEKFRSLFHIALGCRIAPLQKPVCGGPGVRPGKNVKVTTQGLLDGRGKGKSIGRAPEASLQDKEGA
C-C chemokine receptor type 5, sequence (P51681 whole entry): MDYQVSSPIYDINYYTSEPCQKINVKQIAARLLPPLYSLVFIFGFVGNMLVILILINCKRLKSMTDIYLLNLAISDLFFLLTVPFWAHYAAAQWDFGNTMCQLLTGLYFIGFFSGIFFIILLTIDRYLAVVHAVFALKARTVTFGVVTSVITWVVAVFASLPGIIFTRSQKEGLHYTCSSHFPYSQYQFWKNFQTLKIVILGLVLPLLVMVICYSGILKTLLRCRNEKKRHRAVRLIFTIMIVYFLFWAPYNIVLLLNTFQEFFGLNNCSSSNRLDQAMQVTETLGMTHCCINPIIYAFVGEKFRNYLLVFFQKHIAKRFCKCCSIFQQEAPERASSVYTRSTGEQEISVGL

| Compound | IC50 [2] | IC50 [3] | CC50 [1, 27] | also measured |
| --- | --- | --- | --- | --- |
| NCCN(Cc1ccc(CNCc2ccccn2)cc1)C1CCCc2cccnc21 (stereo not given) | > 25000 nM | – | 126 µM | – |
| c1ccc(CNCc2ccc(CN(Cc3nc4ccccc4o3)C3CCCc4cccnc43)cc2)nc1 (stereo not given) | 9100 nM | – | 204 µM | – |
| c1ccc(CNCCN(Cc2ccc(CNCc3ccccn3)cc2)C2CCCc3cccnc32)cc1 (stereo not given) | 920 nM | – | 23 µM | – |
| c1ccc(CNCc2ccc(CN(CCCc3nc4ccccc4[nH]3)C3CCCc4cccnc43)cc2)nc1 (stereo not given) | 1200 nM | – | 101 µM | – |
| O=C(NCc1ccc(CN(Cc2nc3ccccc3[nH]2)C2CCCc3cccnc32)cc1)c1ccccn1 (stereo not given) | 880 nM | – | 36.8 µM | – |
| CNCCCCN(Cc1nc2ccccc2[nH]1)C1CCCc2cccnc21 (stereo not given) | – | 190 nM | 28.2 µM | – |
| O=C(Nc1ccccn1)c1ccc(CN(Cc2nc3ccccc3[nH]2)C2CCCc3cccnc32)cc1 (stereo not given) | 980 nM | – | 34.3 µM | – |
| O=C(NCc1ccccn1)c1ccc(CN(Cc2nc3ccccc3[nH]2)C2CCCc3cccnc32)cc1 (stereo not given) | 1440 nM | – | 127 µM | – |
| NCCCC(=O)N(Cc1nc2ccccc2[nH]1)C1CCCc2cccnc21 (stereo not given) | 2640 nM | 3200 nM | 152 µM | – |
| NCCN(Cc1nc2ccccc2[nH]1)C1CCCc2cccnc21 (stereo not given) | 1370 nM | 1370 nM | 6.86 µM | – |
| c1ccc(CNCc2ccc(CN(Cc3cc4ccccc4[nH]3)C3CCCc4cccnc43)cc2)nc1 (stereo not given) | 1600 nM | – | 8 µM | – |

Further compounds by falling IC50 [2], results first:

| IC50 [2] | IC50 [3] | Compound | CC50 [1, 27] | also measured |
| --- | --- | --- | --- | --- |
| 774 nM | 442 nM | N#CCCCCN(Cc1nc2ccccc2[nH]1)C1CCCc2cccnc21 (stereo not given) | – | CC50 ([1]; mt4): 55.3 µM |
| 660 nM | – | O=C(Nc1ccc(CN(Cc2nc3ccccc3[nH]2)C2CCCc3cccnc32)cc1)c1ccccn1 (stereo not given) | 37.5 µM | – |
| 167 nM | 119 nM | NCc1ccc(CN(Cc2nc3ccccc3[nH]2)C2CCCc3cccnc32)cc1 (stereo not given) | 238 µM | – |
| 144 nM | – | NCCCCN(Cc1nc2ccccc2[nH]1)[C@@H]1CCCc2cccnc21 | – | – |
| 95 nM | – | c1ccc(CNCc2ccc(CN(Cc3nc4ccccc4[nH]3)C3CCCc4cccnc43)cc2)cc1 (stereo not given) | 26.4 µM | – |
| 74 nM | 514 nM | NCCCCCN(Cc1nc2ccccc2[nH]1)C1CCCc2cccnc21 (stereo not given) | 30.2 µM | – |
| 51 nM | 87 nM | CN(C)CCCCN(Cc1nc2ccccc2[nH]1)C1CCCc2cccnc21 (stereo not given) | 29.5 µM | – |
| 30 nM | – | c1ccc(CNCc2ccc(CN(Cc3nc4ccccc4[nH]3)[C@H]3CCCc4cccnc43)cc2)nc1 | – | IC50 [4]: 81 nM; IC50 [5]: > 10 µM; IC50 [6]: > 10 µM; IC50 [7]: > 10 µM; IC50 [8]: > 10 µM; bioavailability [9]: 55%; IC50 [10]: > 10 µM; t1/2 [11]: 2.9 h; Vd [12]: 17.5 L/kg; IC90 [13]: 559 nM; IC50 [14]: 69 nM; IC90 [15]: 108 nM; t1/2 [16]: 5.7 h; Vd [17]: 5.5 L/kg; bioavailability [18]: 48%; IC50 [19]: 120 nM; IC50 [20]: > 10 µM; Cmax [21]: 4500 ng/mL; Cmax [22]: 800 ng/mL |
| 21 nM | 50 nM | NCc1ccccc1CN(Cc1nc2ccccc2[nH]1)C1CCCc2cccnc21 (stereo not given) | 29.6 µM | – |
| 2 nM | – | NCCCCN(Cc1nc2ccccc2[nH]1)[C@H]1CCCc2cccnc21 [MAVORIXAFOR] | – | IC50 [5]: > 10 µM; t1/2 [23]: 3.5 h; IC50 [6]: > 10 µM; bioavailability [24]: 80%; IC50 [7]: > 10 µM; IC50 [8]: > 10 µM; IC50 [10]: > 10 µM; IC50 [13]: 9 nM; IC90 [13]: 26 nM; bioavailability [25]: 22%; IC50 [14]: 16 nM; Vd [26]: 14.3 L/kg; IC50 [20]: > 10 µM; Cmax [21]: 1200 ng/mL; Cmax [22]: 1700 ng/mL |
